Laboratory results as given in patent US20240148747A1, “SMALL MOLECULE ACTIVATORS OF YAP TRANSCRIPTIONAL ACTIVITY FOR REGENERATIVE ORGAN REPAIR” (THE SCRIPPS RESEARCH INSTITUTE, priority 2021, published 2024).
pEC50, pIC50: −log10 of the molar value. Where two headings read alike, the source gives them in different places.

Tests used:
[1] = Cytotoxicity in the TEAD-LUC activation assay; details: human
YAP = experiment: TEAD-LUC activation assay (293A-TEAD-LUC reporter); type: cell-based; details: Homo sapiens, read-out: TEAD-LUC activation assay EC50

| pEC50 (YAP; Table 3) | pEC50 (YAP; Table 4) | SMILES | pIC50 [1] |
| --- | --- | --- | --- |
| 5.30 | – | O=C(NCCCn1ccnn1)c1cc(-c2ccccc2F)on1 [Compound 71] | < 4.70 |
| < 4.70 | – | Cc1ccc(-c2cc(C(=O)NCCCn3ccnn3)no2)cc1 [Compound 72] | < 4.70 |
| < 4.70 | – | COc1ccc(-c2cc(C(=O)NCCCn3ccnn3)no2)cc1 [Compound 73] | < 4.70 |
| 4.82 | – | O=C(NCCCn1ccnn1)c1cc(-c2cccc(F)c2)on1 [Compound 74] | < 4.70 |
| 5.00 | – | O=C(NCCCn1ccnn1)c1cc(-c2ccc(F)cc2F)on1 [Compound 75] | < 4.70 |
| < 4.70 | – | O=C(NCCCn1ccnn1)c1cc(-c2ccc(C(F)(F)F)cc2)on1 [Compound 76] | < 4.70 |
| < 4.70 | – | O=C(NCCCn1ccnn1)c1cc(-c2ccc(OC(F)(F)F)cc2)on1 [Compound 77] | < 4.70 |
| < 4.70 | – | O=C(NCCCn1ccnn1)c1cc(-c2cccnc2)on1 [Compound 78] | < 4.70 |
| < 4.70 | – | O=C(NCCCn1ccnn1)c1cc(-c2ccc(F)c(F)c2)on1 [Compound 79] | < 4.70 |
| < 4.70 | – | O=C(NCCCn1ccnn1)c1cc(-c2cc(F)cc(F)c2)on1 [Compound 80] | < 4.70 |
| < 4.70 | – | O=C(NCCCn1ccnn1)c1cc(-c2ccc(Cl)cc2)on1 [Compound 81] | < 4.70 |
| < 4.70 | – | O=C(NCCCn1ccnn1)c1cc(-c2cncnc2)on1 [Compound 82] | < 4.70 |
| < 4.70 | – | O=C(NCCNc1ccccc1)c1cc(-c2ccccc2)on1 [Compound 83] | < 4.70 |
| < 4.70 | – | O=C(NCCCc1nccs1)c1n[nH]c2ccccc12 [Compound 84] | < 4.70 |
| < 4.70 | – | O=C(NCCCNc1ccccc1F)c1cc(-c2ccccc2)on1 [Compound 85] | < 4.70 |
| < 4.70 | – | O=C(NCCCc1nccs1)c1cc(-c2c(F)cc(F)cc2F)on1 [Compound 86] | < 4.70 |
| < 4.70 | – | O=C(NCCCc1nccs1)c1ncoc1-c1ccccc1 [Compound 87] | < 4.70 |
| < 4.70 | – | O=C(NCCCc1nccs1)c1nc2ccccc2o1 [Compound 88] | < 4.70 |
| 5.00 | – | O=C(NCCCc1nccs1)c1cc(-c2ccc(F)cc2F)on1 [Compound 89] | < 4.70 |
| 5.60 | – | O=C(NCCc1nccs1)c1cc(-c2ccccc2)on1 [Compound 90] | < 4.70 |
| 4.82 | – | O=C(NCCCc1nccs1)c1cc(C(F)(F)F)ccn1 [Compound 91] | < 4.70 |
| < 4.70 | – | O=C(NCCCc1nccs1)c1cncc(C(F)(F)F)c1 [Compound 92] | < 4.70 |
| < 4.70 | – | O=C(NCCn1cccc1)c1n[nH]c2ccccc12 [Compound 93] | < 4.70 |
| 6.00 | – | O=C(NCCCc1nccs1)c1cc(-c2c(F)cccc2F)on1 [Compound 94] | < 4.70 |
| 5.60 | – | O=C(NCCCNc1cccc(F)c1)c1cc(-c2ccccc2)on1 [Compound 95] | < 4.70 |
| < 4.70 | – | Cc1cncc(C(=O)NCCCc2nccs2)c1 [Compound 96] | < 4.70 |

| pEC50 (YAP; Table 3) | pEC50 (YAP; Table 4) | SMILES | pIC50 [1] |
| --- | --- | --- | --- |
| < 4.70 | – | O=C(NCCCn1ccnn1)c1n[nH]c2ccccc12 [Compound 97] | < 4.70 |
| < 4.70 | – | O=C(NCCc1nccs1)c1cc(-c2c(F)cccc2F)on1 [Compound 98] | < 4.70 |
| 5.00 | – | O=C(NCCCN1CCOCC1)c1cc(-c2ccccc2F)on1 [Compound 100] | < 4.70 |
| < 4.70 | – | O=C(NCCCn1cccc1)c1n[nH]c2ccccc12 [Compound 101] | < 4.70 |
| < 4.70 | – | O=C(NCCCc1nccs1)c1ncc(-c2ccccc2)o1 [Compound 102] | < 4.70 |
| < 4.70 | – | O=C(NCCCc1nccs1)c1noc(-c2ccccc2)n1 [Compound 103] | < 4.70 |
| < 4.70 | – | O=C(N[C@H]1C[C@@H]1n1cccc1)c1cc(-c2ccccc2)on1 [Compound 104] | < 4.70 |
| < 4.70 | – | O=C(NCCCc1nccs1)c1cc(C(F)(F)F)ncn1 [Compound 105] | < 4.70 |
| < 4.70 | – | S=C(NCCn1cccc1)c1cc(-c2ccccc2)on1 [Compound 106, N-(2-(1H-pyrrol-1-yl)ethyl)-5-phenylisoxazole-3-carbothioamide] | < 4.70 |
| – | < 4.70 | CC(C)(CO)NC(=O)c1cc(-c2ccccc2)on1 [Compound 107] | < 4.70 |
| – | < 4.70 | Cc1ccc(C2CCCN2C(=O)c2cc(-c3ccc4c(c3)OCO4)on2)cc1 (stereo not shown) [Compound 108] | < 4.70 |
| – | < 4.70 | COc1ccccc1-c1cc(C(=O)N2CCCC2c2cc(C)no2)no1 (stereo not shown) [Compound 109] | < 4.70 |
| – | 5.99 | O=C(NCCCn1cccc1)c1cc(-c2ccccc2)on1 [Compound 110] | < 4.70 |
| – | 5.80 | O=C(NCCCn1cccn1)c1cc(-c2ccccc2)on1 [Compound 111] | < 4.70 |
| – | 5.17 | O=C(NCCCN1CCOCC1)c1cc(-c2ccccc2)on1 [Compound 112] | < 4.70 |
| – | 5.49 | O=C(NCCCn1cncn1)c1cc(-c2ccccc2)on1 [Compound 113] | < 4.70 |
| – | 5.53 | O=C(NCCCn1ccnc1)c1cc(-c2ccccc2)on1 [Compound 114] | < 4.70 |
| – | < 4.70 | O=C(c1cc(-c2ccccc2)on1)N1CCC(n2cccc2)CC1 [Compound 115] | < 4.70 |
| – | < 4.70 | Cc1ccc(-c2cc(C(=O)NCCC(=O)NC(C)C)no2)cc1C [Compound 116] | 6.00 |
| – | < 4.70 | CCN(CC)CCCNC(=O)c1cc(-c2ccc(Cl)cc2)on1 [Compound 117] | < 4.70 |
| – | < 4.70 | CCN1CCN(C(CNC(=O)c2cc(-c3ccccc3)on2)c2ccc(OC)cc2)CC1 (stereo not shown) [Compound 118] | < 4.70 |
| – | < 4.70 | Cc1ccc(-c2cc(C(=O)NCCC(=O)N(C)Cc3ccccc3)no2)cc1 [Compound 119] | < 4.70 |
| – | < 4.70 | O=C(NCCCN1CCOCC1)c1cc(-c2ccc(Cl)c(Cl)c2)on1 [Compound 120] | < 4.70 |
| – | 5.26 | O=C(NCCN1CCOCC1)c1cc(-c2ccccc2)on1 [Compound 122] | < 4.70 |
| – | < 4.70 | CC(=O)Nc1cccc(NC(=O)c2cc(-c3ccccc3)on2)c1 [Compound 123] | < 4.70 |
| – | 5.17 | CC1CN(C(=O)CCNC(=O)c2cc(-c3ccccc3)on2)CC(C)O1 (stereo not shown) [Compound 124] | < 4.70 |

| pEC50 (YAP; Table 3) | pEC50 (YAP; Table 4) | SMILES | pIC50 [1] |
| --- | --- | --- | --- |
| – | < 4.70 | CCN1C(=O)NC(=O)C12CCN(C(=O)c1cc(-c3ccccc3)on1)CC2 [Compound 125] | < 4.70 |
| – | < 4.70 | CN(C)CCN(C(=O)c1cc(-c2ccccc2)on1)c1ccccc1 [Compound 126] | < 4.70 |
| – | 5.57 | CN1CCN(CCCNC(=O)c2cc(-c3ccccc3)on2)CC1 [Compound 127, N-[3-(4-methylpiperazin-1-yl)propyl]-5-phenyl-1,2-oxazole-3-carboxamide] | < 4.70 |
| – | 5.22 | CN1CCN(CCNC(=O)c2cc(-c3ccccc3)on2)CC1 [Compound 128] | < 4.70 |
| – | < 4.70 | COc1ccc(OC)c(-c2cc(C(=O)NCCc3nc(C)cs3)no2)c1 [Compound 130] | < 4.70 |
| – | 5.54 | Cc1ccc(NCCCNC(=O)c2cc(-c3ccccc3)on2)nc1 [Compound 131] | < 4.70 |
| – | < 4.70 | Cc1ccc(C(=O)NC2CCN(C(=O)c3cc(-c4ccccc4)on3)CC2)o1 [Compound 132] | < 4.70 |
| – | < 4.70 | NC(=O)CCN(Cc1ccccc1)C(=O)c1cc(-c2ccccc2)on1 [Compound 133] | < 4.70 |
| – | < 4.70 | O=C(NCCCN1CCOCC1)c1cc(-c2ccc(Cl)cc2)on1 [Compound 134] | < 4.70 |
| – | < 4.70 | O=C(NCCCN1CCOCC1)c1cc(-c2ccc(F)cc2)on1 [Compound 135] | < 4.70 |
| – | 5.26 | O=C(NCCN1CCOCC1)c1cc(-c2ccc(F)cc2)on1 [Compound 136] | < 4.70 |
| – | < 4.70 | O=C(c1cc(-c2ccccc2)on1)N1CCC(Nc2ncccn2)CC1 [Compound 137] | < 4.70 |
| – | < 4.70 | O=C(c1cc(-c2ccccc2)on1)N1CCC(c2nc3ccccc3s2)CC1 [Compound 138] | < 4.70 |
| – | < 4.70 | CC(=O)N1CCCN(C(=O)c2cc(-c3ccccc3)on2)CC1 [Compound 139] | < 4.70 |
| – | < 4.70 | O=C(c1cc(-c2ccccc2)on1)N1CCCN(c2cccnn2)CC1 [Compound 140] | < 4.70 |
| – | 5.40 | O=C(NCCCN1CCCCCC1=O)c1cc(-c2ccccc2)on1 [Compound 141] | < 4.70 |
| – | 5.33 | Cc1nc(CCCNC(=O)c2cc(-c3ccccc3)on2)sc1C [Compound 142] | < 4.70 |
| – | < 4.70 | O=C(Nc1ccccc1-n1cncn1)c1cc(-c2ccccc2)on1 [Compound 143] | < 4.70 |
| – | 5.00 | O=C(Nc1cccc(N2CCOC2=O)c1)c1cc(-c2ccccc2)on1 [Compound 144] | < 4.70 |
| – | 5.70 | CCN1C(=O)CCc2cc(NC(=O)c3n[nH]c4ccccc34)ccc21 [Compound 145] | < 4.70 |
| – | 4.82 | CN1C(=O)CCc2cc(NC(=O)c3ccncc3)ccc21 [Compound 146] | < 4.70 |
| – | 5.60 | CN1C(=O)CCc2cc(NC(=O)c3n[nH]c4ccccc34)ccc21 [Compound 147] | < 4.70 |
| – | < 4.70 | O=C(NCCc1ccccc1)c1n[nH]c2ccccc12 [Compound 148] | < 4.70 |
| – | 5.52 | CCCN1C(=O)CCc2cc(NC(=O)c3ccn(CC)n3)ccc21 [Compound 149] | < 4.70 |
| – | 5.00 | Cc1cccc(C)c1NC(=O)c1n[nH]c(=O)c2ccccc12 [Compound 150] | < 4.70 |
